System: 935938-334-R-J1-PDC complex spheroid viability
Assay: Anticancer human tumor 935938-334-R-J1-PDC patient-derived small intestine adenocarcinoma cell line growth inhibition [POLQ]
Conditions: second compound 10 µM; first compound 0.0316 µM; stronger effect = lower value
How it was run: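 Patient-derived tumour cells were co-cultured with HUVEC and mesenchymal stem cells as multicellular spheroids at 37 °C. They were treated with POLQ inhibitors (novobiocin, ART-558, RP6685) alone or combined with other agents. Top concentrations were at or near clinical Cmax (otherwise 10 microM; SN-38 at 1 microM), decreasing in half-log steps.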
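Note: spheroids exposed to drugs for seven days before viability read; 100% = DMSO vehicle control wells.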

Compound	viability, T/C
CC1COCCN1c1cc(C2(S(C)(=N)=O)CC2)nc(-c2ccnc3[nH]ccc23)n1 (configuration not stated) + COC1C(OC(N)=O)C(O)C(Oc2ccc3c(O)c(NC(=O)c4ccc(O)c(CC=C(C)C)c4)c(=O)oc3c2C)OC1(C)C	105%
COc1cccc2c1C(=O)c1c(O)c3c(c(O)c1C2=O)CC(O)(C(=O)CO)CC3OC1CC(N)C(O)C(C)O1 (configuration not stated) + Cc1cccc(N(C)C(=O)C2C(O)CCN2c2nc(C)cc(C(F)(F)F)c2C#N)c1	49.4%

Same assay, conditions: second compound 10 µM; first compound 0.1 µM; stronger effect = lower value

Compound	viability, T/C
COc1ccc([C@@H](O)c2cc(-c3ncnc4cc(N5CCOCC5)ccc34)c(F)cc2Cl)nn1 + COC1C(OC(N)=O)C(O)C(Oc2ccc3c(O)c(NC(=O)c4ccc(O)c(CC=C(C)C)c4)c(=O)oc3c2C)OC1(C)C	72.4%
Nc1ccn(C2OC(CO)C(O)C2(F)F)c(=O)n1 (configuration not stated) + Cc1cccc(N(C)C(=O)C2C(O)CCN2c2nc(C)cc(C(F)(F)F)c2C#N)c1	35.4%
COc1cc2cc(C(=O)CCC(=O)O)sc2cc1OC + Cc1cccc(N(C)C(=O)C2C(O)CCN2c2nc(C)cc(C(F)(F)F)c2C#N)c1	75.6%
O=C(c1cc(Cc2n[nH]c(=O)c3ccccc23)ccc1F)N1CCN(C(=O)C2CC2)CC1 + COC1C(OC(N)=O)C(O)C(Oc2ccc3c(O)c(NC(=O)c4ccc(O)c(CC=C(C)C)c4)c(=O)oc3c2C)OC1(C)C	102%
O=C(Nc1ccc(O)c(NS(=O)(=O)c2ccc(F)cc2)c1)c1ccc(-c2ccccc2)cc1 + Cc1cccc(N(C)C(=O)C2C(O)CCN2c2nc(C)cc(C(F)(F)F)c2C#N)c1	106%
COc1cc(C2c3cc4c(cc3C(OC3OC5COC(C)OC5C(O)C3O)C3COC(=O)C23)OCO4)cc(OC)c1O (configuration not stated) + Cc1cccc(N(C)C(=O)C2C(O)CCN2c2nc(C)cc(C(F)(F)F)c2C#N)c1	73.7%
CC1COCCN1c1cc(C2(S(C)(=N)=O)CC2)nc(-c2ccnc3[nH]ccc23)n1 (configuration not stated) + COC1C(OC(N)=O)C(O)C(Oc2ccc3c(O)c(NC(=O)c4ccc(O)c(CC=C(C)C)c4)c(=O)oc3c2C)OC1(C)C	82.5%
COc1cccc2c1C(=O)c1c(O)c3c(c(O)c1C2=O)CC(O)(C(=O)CO)CC3OC1CC(N)C(O)C(C)O1 (configuration not stated) + Cc1cccc(N(C)C(=O)C2C(O)CCN2c2nc(C)cc(C(F)(F)F)c2C#N)c1	33.8%

Same assay, conditions: second compound 10 µM; first compound 0.316 µM; stronger effect = lower value

Compound	viability, T/C
COc1ccc([C@@H](O)c2cc(-c3ncnc4cc(N5CCOCC5)ccc34)c(F)cc2Cl)nn1 + COC1C(OC(N)=O)C(O)C(Oc2ccc3c(O)c(NC(=O)c4ccc(O)c(CC=C(C)C)c4)c(=O)oc3c2C)OC1(C)C	96.4%
Nc1ccn(C2OC(CO)C(O)C2(F)F)c(=O)n1 (configuration not stated) + Cc1cccc(N(C)C(=O)C2C(O)CCN2c2nc(C)cc(C(F)(F)F)c2C#N)c1	29.2%
COc1cc2cc(C(=O)CCC(=O)O)sc2cc1OC + Cc1cccc(N(C)C(=O)C2C(O)CCN2c2nc(C)cc(C(F)(F)F)c2C#N)c1	96.2%
O=C(c1cc(Cc2n[nH]c(=O)c3ccccc23)ccc1F)N1CCN(C(=O)C2CC2)CC1 + COC1C(OC(N)=O)C(O)C(Oc2ccc3c(O)c(NC(=O)c4ccc(O)c(CC=C(C)C)c4)c(=O)oc3c2C)OC1(C)C	80.3%
O=C(Nc1ccc(O)c(NS(=O)(=O)c2ccc(F)cc2)c1)c1ccc(-c2ccccc2)cc1 + Cc1cccc(N(C)C(=O)C2C(O)CCN2c2nc(C)cc(C(F)(F)F)c2C#N)c1	101%
COc1cc(C2c3cc4c(cc3C(OC3OC5COC(C)OC5C(O)C3O)C3COC(=O)C23)OCO4)cc(OC)c1O (configuration not stated) + Cc1cccc(N(C)C(=O)C2C(O)CCN2c2nc(C)cc(C(F)(F)F)c2C#N)c1	56.2%
CC1COCCN1c1cc(C2(S(C)(=N)=O)CC2)nc(-c2ccnc3[nH]ccc23)n1 (configuration not stated) + COC1C(OC(N)=O)C(O)C(Oc2ccc3c(O)c(NC(=O)c4ccc(O)c(CC=C(C)C)c4)c(=O)oc3c2C)OC1(C)C	95.2%
COc1cccc2c1C(=O)c1c(O)c3c(c(O)c1C2=O)CC(O)(C(=O)CO)CC3OC1CC(N)C(O)C(C)O1 (configuration not stated) + Cc1cccc(N(C)C(=O)C2C(O)CCN2c2nc(C)cc(C(F)(F)F)c2C#N)c1	37.7%

Same assay, conditions: second compound 10 µM; first compound 1 µM; stronger effect = lower value

Compound	viability, T/C
COc1ccc([C@@H](O)c2cc(-c3ncnc4cc(N5CCOCC5)ccc34)c(F)cc2Cl)nn1 + COC1C(OC(N)=O)C(O)C(Oc2ccc3c(O)c(NC(=O)c4ccc(O)c(CC=C(C)C)c4)c(=O)oc3c2C)OC1(C)C	70.4%
Nc1ccn(C2OC(CO)C(O)C2(F)F)c(=O)n1 (configuration not stated) + Cc1cccc(N(C)C(=O)C2C(O)CCN2c2nc(C)cc(C(F)(F)F)c2C#N)c1	23.3%
COc1cc2cc(C(=O)CCC(=O)O)sc2cc1OC + Cc1cccc(N(C)C(=O)C2C(O)CCN2c2nc(C)cc(C(F)(F)F)c2C#N)c1	112%
O=C(c1cc(Cc2n[nH]c(=O)c3ccccc23)ccc1F)N1CCN(C(=O)C2CC2)CC1 + COC1C(OC(N)=O)C(O)C(Oc2ccc3c(O)c(NC(=O)c4ccc(O)c(CC=C(C)C)c4)c(=O)oc3c2C)OC1(C)C	83.8%
O=C(Nc1ccc(O)c(NS(=O)(=O)c2ccc(F)cc2)c1)c1ccc(-c2ccccc2)cc1 + Cc1cccc(N(C)C(=O)C2C(O)CCN2c2nc(C)cc(C(F)(F)F)c2C#N)c1	100%
COc1cc(C2c3cc4c(cc3C(OC3OC5COC(C)OC5C(O)C3O)C3COC(=O)C23)OCO4)cc(OC)c1O (configuration not stated) + Cc1cccc(N(C)C(=O)C2C(O)CCN2c2nc(C)cc(C(F)(F)F)c2C#N)c1	33.7%
CC1COCCN1c1cc(C2(S(C)(=N)=O)CC2)nc(-c2ccnc3[nH]ccc23)n1 (configuration not stated) + COC1C(OC(N)=O)C(O)C(Oc2ccc3c(O)c(NC(=O)c4ccc(O)c(CC=C(C)C)c4)c(=O)oc3c2C)OC1(C)C	58.1%
COc1cccc2c1C(=O)c1c(O)c3c(c(O)c1C2=O)CC(O)(C(=O)CO)CC3OC1CC(N)C(O)C(C)O1 (configuration not stated) + Cc1cccc(N(C)C(=O)C2C(O)CCN2c2nc(C)cc(C(F)(F)F)c2C#N)c1	16.8%

Same assay, conditions: second compound 10 µM; first compound 3.16 µM; stronger effect = lower value

Compound	viability, T/C
COc1ccc([C@@H](O)c2cc(-c3ncnc4cc(N5CCOCC5)ccc34)c(F)cc2Cl)nn1 + COC1C(OC(N)=O)C(O)C(Oc2ccc3c(O)c(NC(=O)c4ccc(O)c(CC=C(C)C)c4)c(=O)oc3c2C)OC1(C)C	80%
Nc1ccn(C2OC(CO)C(O)C2(F)F)c(=O)n1 (configuration not stated) + Cc1cccc(N(C)C(=O)C2C(O)CCN2c2nc(C)cc(C(F)(F)F)c2C#N)c1	26.2%
COc1cc2cc(C(=O)CCC(=O)O)sc2cc1OC + Cc1cccc(N(C)C(=O)C2C(O)CCN2c2nc(C)cc(C(F)(F)F)c2C#N)c1	114%
O=C(c1cc(Cc2n[nH]c(=O)c3ccccc23)ccc1F)N1CCN(C(=O)C2CC2)CC1 + COC1C(OC(N)=O)C(O)C(Oc2ccc3c(O)c(NC(=O)c4ccc(O)c(CC=C(C)C)c4)c(=O)oc3c2C)OC1(C)C	81.7%
O=C(Nc1ccc(O)c(NS(=O)(=O)c2ccc(F)cc2)c1)c1ccc(-c2ccccc2)cc1 + Cc1cccc(N(C)C(=O)C2C(O)CCN2c2nc(C)cc(C(F)(F)F)c2C#N)c1	71.1%
COc1cc(C2c3cc4c(cc3C(OC3OC5COC(C)OC5C(O)C3O)C3COC(=O)C23)OCO4)cc(OC)c1O (configuration not stated) + Cc1cccc(N(C)C(=O)C2C(O)CCN2c2nc(C)cc(C(F)(F)F)c2C#N)c1	31.1%
CC1COCCN1c1cc(C2(S(C)(=N)=O)CC2)nc(-c2ccnc3[nH]ccc23)n1 (configuration not stated) + COC1C(OC(N)=O)C(O)C(Oc2ccc3c(O)c(NC(=O)c4ccc(O)c(CC=C(C)C)c4)c(=O)oc3c2C)OC1(C)C	44.3%
COc1cccc2c1C(=O)c1c(O)c3c(c(O)c1C2=O)CC(O)(C(=O)CO)CC3OC1CC(N)C(O)C(C)O1 (configuration not stated) + Cc1cccc(N(C)C(=O)C2C(O)CCN2c2nc(C)cc(C(F)(F)F)c2C#N)c1	5.04%

Same assay, conditions: second compound 10 µM; first compound 10 µM; stronger effect = lower value

Compound	viability, T/C
COc1ccc([C@@H](O)c2cc(-c3ncnc4cc(N5CCOCC5)ccc34)c(F)cc2Cl)nn1 + COC1C(OC(N)=O)C(O)C(Oc2ccc3c(O)c(NC(=O)c4ccc(O)c(CC=C(C)C)c4)c(=O)oc3c2C)OC1(C)C	34.8%
Nc1ccn(C2OC(CO)C(O)C2(F)F)c(=O)n1 (configuration not stated) + Cc1cccc(N(C)C(=O)C2C(O)CCN2c2nc(C)cc(C(F)(F)F)c2C#N)c1	19.2%
COc1cc2cc(C(=O)CCC(=O)O)sc2cc1OC + Cc1cccc(N(C)C(=O)C2C(O)CCN2c2nc(C)cc(C(F)(F)F)c2C#N)c1	105%
O=C(c1cc(Cc2n[nH]c(=O)c3ccccc23)ccc1F)N1CCN(C(=O)C2CC2)CC1 + COC1C(OC(N)=O)C(O)C(Oc2ccc3c(O)c(NC(=O)c4ccc(O)c(CC=C(C)C)c4)c(=O)oc3c2C)OC1(C)C	69.5%
O=C(Nc1ccc(O)c(NS(=O)(=O)c2ccc(F)cc2)c1)c1ccc(-c2ccccc2)cc1 + Cc1cccc(N(C)C(=O)C2C(O)CCN2c2nc(C)cc(C(F)(F)F)c2C#N)c1	45.1%
COc1cc(C2c3cc4c(cc3C(OC3OC5COC(C)OC5C(O)C3O)C3COC(=O)C23)OCO4)cc(OC)c1O (configuration not stated) + Cc1cccc(N(C)C(=O)C2C(O)CCN2c2nc(C)cc(C(F)(F)F)c2C#N)c1	33.1%
CC1COCCN1c1cc(C2(S(C)(=N)=O)CC2)nc(-c2ccnc3[nH]ccc23)n1 (configuration not stated) + COC1C(OC(N)=O)C(O)C(Oc2ccc3c(O)c(NC(=O)c4ccc(O)c(CC=C(C)C)c4)c(=O)oc3c2C)OC1(C)C	17.3%
COc1cccc2c1C(=O)c1c(O)c3c(c(O)c1C2=O)CC(O)(C(=O)CO)CC3OC1CC(N)C(O)C(C)O1 (configuration not stated) + Cc1cccc(N(C)C(=O)C2C(O)CCN2c2nc(C)cc(C(F)(F)F)c2C#N)c1	5.34%
